The test system of data set [1] is HO-N-myc cells. Kind of data set: Secondary filter for Myc specificity: cell growth inhibition, methylene blue staining. It is filed as cell-based, rat. The conditions noted are these: for Myc Index N: ID50 in HO-null cells divided by ID50 in HO—N-myc cells; for IC50: Rattus norvegicus, cell growth inhibition, 72 h, methylene blue, read-out: ID50 HO—N-myc. The procedure: (§1) FIG. 4 illustrates the myc specificity of tested compounds. Rat1a cells expressing c-myc, L-myc or N-myc or lacking any Myc (null) were treated for 72 h with a range of hit compound concentrations. The cells were then fixed and stained with methylene blue and the percentage of cells in the presence of compound compared to DMSO only control was calculated.
(§2) Validated hits were divided into classes when two or more compounds shared significant structural similarity. The ID50 for N-myc transactivation (the inhibitory dose resulting in 50% decrease in luciferase activity) for each hit was calculated from the dose-response N-myc responsive reporter assay. Compounds within each class were ranked by their ID50 for N-myc transactivation and the best compounds within each class were chosen for further studies. In addition, the best of the structurally unique compounds were also analyzed. A total of 46 hits were passed through a secondary filter designed to determine the specificity of the hits for Myc proteins. For this filter, we used a panel of cell lines derived from Rat1a cells (kindly provided by Michael Cole, Dartmouth University): HO-null-c-Myc deficient cells due to homologous recombination that express neither N-myc nor L-myc HO-c-Myc, HO-L-myc and HO-N-myc derived by retroviral transduction of the corresponding Myc genes into HO-null cells. Since each cell line expresses only a single Myc or no Myc family members, we could identify compounds that act through Myc family members as well as which Myc family members. […] The 18 Myc-specific compounds identified during the screening and filtering process are presented in Table 1 and represent distinct classes of molecules, including pyrazoles (e.g., N147A7, N47E10, N147G5), tetrazoles (e.g., N77A7) and 3-bromophenol (e.g., N4G6).

The test system of data set [2] is HO-c-Myc cells. The description is as above. It is filed as cell-based, rat. The conditions noted are these: for Myc Index C: ID50 in HO-null cells divided by ID50 in HO-c-myc cells; for IC50: Rattus norvegicus, cell growth inhibition, 72 h, methylene blue, read-out: ID50 HO-c-myc. The procedure:
as §1, §2

Data set [3] has as its system HO-null cells. The description is as above. The conditions noted are these: Rattus norvegicus, 72 h, read-out: ID50 HO-null. It is filed as cell-based. The procedure:
as §1, §2

Data set [4] can be described thus: in vitro. The procedure:
Additionally, several of the N77A7 analogs were subjected to the test for the metabolic stability in human and mouse liver microsomes. Briefly, 1 μM of test compound was incubated with microsomal protein (human liver microsomes: 0.5 mg/mL; mouse liver microsomes 0.5 mg/mL) and buffer (100 mM potassium phosphate, pH 7.4, 5 mM magnesium chloride). The positive control was 5 μM testosterone. The reaction was equilibrated at 37 C in a shaking water bath for 3 to 5 minutes. After equilibration, an aliquot was removed and combined with 50/50 acetonitrile/water containing 0.1% formic acid and internal standard to terminate the reaction. 1 mM NADPH was immediately added and the tube was returned to the water bath. Five sample time points were taken (0, 10, 20, 30, and 60 minutes). Aliquots were removed and combined with 50/50 acetonitrile/water containing 0.1% formic acid and internal standard to terminate the reaction. The samples were mixed for 10 minutes and centrifuged. The supernatant from each sample was diluted (if necessary) and then transferred to vials for analysis by LC-MS/MS for the test compound and internal standard without calibration standards. The percent remaining at each time point was determined by the test compound's peak area response ratio versus the 0 minute sample.

Data set [5] has as its system SK-Mel-19. Briefly: Suppression of proliferation / senescence induction in melanoma line. It counts as cell-based. The conditions noted are these: Homo sapiens, SK-MEL19. The text has this: (§3) 260 analogs of N77A7 were selected from several commercially available libraries of small molecules based on the structural similarities with N77A7. The compounds were screened for the ability to permanently suppress proliferation and induce senescence in cells from melanoma lines SK-Mel-19 and SK-Mel-103. Based on the above-described screening procedure, seven small molecules were identified as having IC50 values lower than that of N77A7.

In data set [6] the test system is SK-Mel-103. The description is as above. It is filed as cell-based. Conditions: Homo sapiens.
From the text: as §3

The mark [7] stands for this setting: human, microsomes, 1 μM, pH 7.4.
[8] abbreviates: mouse, microsomes, 1 μM, pH 7.4.

Bounds are passed on as bounds.

For `CC(=O)NC(c1ccc2c(c1)OCO2)c1ccc2cccnc2c1O` (stereo not drawn) [Compound N103A8], in data set [1], the “Myc Index N” value was found to be 4.5 and the IC50 came out at 1.69 µM. In data set [2], the “Myc Index C” value is recorded as 4.7 and the IC50 worked out at 1.62 µM. Further, the IC50 in data set [3] turned out to be 7.57 µM.
One may read the half-life as the time in which the quantity being followed falls by half. Read a high half-life as slow loss. The term microsomal CLint denotes the rate of metabolic loss divided by the concentration. For the compound `CCN(CC)c1ccc(/C=N/NC(=O)c2cc(C)n[nH]2)c(O)c1` [Compound 3], the “Percent Remaining 0 min” value in data set [4] (human, microsomes, 0 h, 1 μM, pH 7.4) amounted to 100%; in data set [4] (mouse, microsomes, 0 h, 1 μM, pH 7.4) it was 100%. Also, the “Percent Remaining 10 min” value in data set [4] (setting [7]) is 93%; in data set [4] (setting [8]), 39%. The “Percent Remaining 20 min” value in data set [4] (setting [7]) was found to be 66%; in data set [4] (setting [8]) it was 12%. Further, the “Percent Remaining 30 min” value in data set [4] (human, microsomes, 0.5 h, 1 μM, pH 7.4) came out at 49%; in data set [4] (mouse, microsomes, 0.5 h, 1 μM, pH 7.4), 3.7%. Besides, the “Percent Remaining 60 min” value in data set [4] (human, microsomes, 1 h, 1 μM, pH 7.4) was 24%; in data set [4] (mouse, microsomes, 1 h, 1 μM, pH 7.4) it was less than 1.0%. Also, the half-life at 1 µM in data set [4] (human, microsomes, pH 7.4) was 29.5 min; in data set [4] (mouse, microsomes, pH 7.4), 7 min. Besides, the microsomal CLint at 1 μM in data set [4] (human, microsomes, pH 7.4) was found to be 47 µL/min/mg; in data set [4] (mouse, microsomes, pH 7.4), 200 µL/min/mg. The IC50 in data set [5] and in data set [6] was 500 nM throughout.
On to `CCOc1cccc(/C=N/NC(=O)CSc2nc3ccccc3[nH]2)c1O` [Compound N144G3], for which the “Myc Index N” value in data set [1] is listed as 4.7. Besides, the IC50 amounted to 17.8 µM in data set [1], 25.8 µM in data set [2] and 83.2 µM in data set [3]. Also, the “Myc Index C” value in data set [2] turned out to be 3.22.
In the case of `Nc1nonc1-n1nnc(C(=O)N/N=C/c2ccccc2O)c1CN1CCc2ccccc2C1` [Compound 5], the IC50 in data set [5] is 600 nM; in data set [6], 350 nM.
On to `O=C(N/N=C\c1cc(Cc2ccccc2Cl)ccc1O)c1cncc(Br)c1` [Compound N171H10], for which, in data set [1], the “Myc Index N” value is more than 6 and the IC50 worked out at 4 µM. In data set [2], the “Myc Index C” value is recorded as more than 10 and the IC50 is 2.6 µM. The IC50 in data set [3] was more than 25 µM.
Turning to `O=C(Oc1c(C(=O)Nc2ccc(Cl)c([N+](=O)[O-])c2)ccc2ccccc12)c1ccccc1` [Compound N6A8], in data set [1], the “Myc Index N” value was 2.2 and the IC50 turned out to be 9.71 µM. Moreover, in data set [2], the “Myc Index C” value was 2.4 and the IC50 stood at 8.86 µM. Moreover, the IC50 in data set [3] came to 21.1 µM.
As to `O=[N+]([O-])c1cccc(Nc2ncnc3ccc(Br)cc23)c1` [Compound N117E2], in data set [1], the “Myc Index N” value is listed as more than 6 and the IC50 came out at 8.8 µM. In data set [2], the “Myc Index C” value is recorded as more than 7 and the IC50 is 7.49 µM. The IC50 in data set [3] is more than 50 µM.
In the case of `CN1C(=O)/C(=C\c2cn(Cc3ccccc3)c3ccccc23)C(=O)NC1=S` [Compound N423F7], in data set [1], the “Myc Index N” value is given as 17 and the IC50 was 120 µM. Besides, in data set [2], the “Myc Index C” value worked out at 22 and the IC50 is 89.1 µM. The IC50 in data set [3] was found to be 1980 µM.
On to `c1ccc(-c2nnc(-c3ccccn3)nc2-c2ccccc2)cc1` [Compound N49C4], for which the “Myc Index N” value in data set [1] is reported as 8.1. Further, the IC50 in data set [1] was approximately 728 µM; in data set [2], 19.6 µM; in data set [3], 159 µM.
`O=C(COc1ccc2ccccc2c1)N/N=C\c1cc(O)c(O)c(Br)c1` [Compound N4D2]: in data set [1], the “Myc Index N” value is more than 1.1. Besides, the results for the IC50 in data set [1], in data set [2] and in data set [3] were 88 µM, 33.8 µM and more than 100 µM, respectively. For the same compound, the “Myc Index C” value in data set [2] was more than 3.
For `CC(C)(C)c1cc(C(=O)N/N=C/c2ccc(O)cc2O)n(-c2ccccc2)n1` [Compound N47E10], in that order: 5, 1.44 µM, 2.54 µM, 7.21 µM and 2.8.
Consider `COc1ccc(OCC(=O)N/N=C\c2cc(O)c(O)c(Br)c2)c(Br)c1` [Compound N4G6], for which, in data set [1], the “Myc Index N” value is given as more than 10. Besides, the results for the IC50 in data set [1], in data set [2] and in data set [3] were 10.2 µM, 32.6 µM and more than 100 µM, respectively. Also, the “Myc Index C” value in data set [2] was more than 3.
Take `CCN(CC)c1ccc(/C=N/NC(=O)c2cc(Br)ccc2O)c(O)c1` [Compound N6008]: in data set [1], the “Myc Index N” value was more than 11 and the IC50 amounted to 2.34 µM. In data set [2], the “Myc Index C” value is listed as more than 11 and the IC50 amounted to 2.32 µM. In addition, in data set [3], the IC50 was more than 25 µM.
Take `Cc1ccc(/C=N/NC(=O)c2cc(-c3ccccc3)n[nH]2)c(O)c1` [Compound 1]: the IC50 turned out to be 4000 nM in data set [5] and 2500 nM in data set [6].
Turning to `O=C(N/N=C/c1c(O)ccc2ccccc12)c1cc(C23CC4CC(CC(C4)C2)C3)n[nH]1` [Compound N147A7], in data set [1], the “Myc Index N” value was determined as 2.7 and the IC50 came to 1.9 µM. In data set [2], the “Myc Index C” value turned out to be 1.3 and the IC50 was determined as 3.94 µM. Also, the IC50 in data set [3] amounted to 5.12 µM.
In the same order, the values of `O=C(NC(NC(=S)Nc1ccc(I)cc1)C(Cl)(Cl)Cl)c1cccc([N+](=O)[O-])c1` (stereo not drawn) [Compound N121F3] are 2.4, 9.7 µM, 2.1, 11.3 µM and 23.5 µM.
Take `C[C@]12CC[C@H]3[C@@H](CCC4=CC(=O)CC[C@@]43C)[C@@H]1CC[C@@H]2O` [Testosterone, testosterone, reference compound]: the “Percent Remaining 10 min” value was 78% in data set [4] (human liver microsomes 0.5 mg/mL, 1 μM test compound (testosterone 5 μM)) and 19% in data set [4] (mouse liver microsomes 0.5 mg/mL, 1 μM test compound (testosterone 5 μM)). For the same compound, the “Percent Remaining 30 min” value is 40% in data set [4] (human liver microsomes 0.5 mg/mL, 1 μM test compound (testosterone 5 μM), 30 min) and less than 1.0% in data set [4] (mouse liver microsomes 0.5 mg/mL, 1 μM test compound (testosterone 5 μM), 30 min). Besides, the “Percent Remaining 60 min” value was 19% in data set [4] (human liver microsomes 0.5 mg/mL, 1 μM test compound (testosterone 5 μM), 60 min) and less than 1.0% in data set [4] (mouse liver microsomes 0.5 mg/mL, 1 μM test compound (testosterone 5 μM), 60 min). Besides, the “Percent Remaining 0 min” value in data set [4] (human liver microsomes 0.5 mg/mL, 1 μM test compound (testosterone positive control 5 μM), 0 min) is recorded as 100%; in data set [4] (mouse liver microsomes 0.5 mg/mL, 1 μM test compound (testosterone positive control 5 μM), 0 min), 100%. Moreover, the half-life at 1 µM in data set [4] (human, microsomes, pH 7.4) stood at 23.9 min; in data set [4] (mouse, microsomes, pH 7.4) it was 4.2 min.
For the compound `O=c1[nH]c2ccc(/N=C/c3cn(Cc4ccc(Cl)cc4Cl)c4ccccc34)cc2[nH]1` [Compound N18C5], the “Myc Index N” value in data set [1] is on record as more than 6. Moreover, the IC50 in data set [1] was 16 µM; in data set [2] it was more than 100 µM; in data set [3] it was more than 100 µM.
Turning to `CC(C)Nc1ncnc2ccc(Br)cc12` [Compound N117G10], in data set [1], the “Myc Index N” value turned out to be 6 and the IC50 amounted to 4.58 µM. Besides, in data set [2], the “Myc Index C” value worked out at 4.5 and the IC50 amounted to 6.27 µM. Moreover, in data set [3], the IC50 amounted to 28.2 µM.
On to `C=CCc1cccc(/C=N/NC(=O)c2cc(C(C)(C)C)n[nH]2)c1O` [Compound N147G5], for which, in data set [1], the “Myc Index N” value is recorded as more than 5 and the IC50 stood at 5 µM. Besides, in data set [2], the “Myc Index C” value is given as more than 6 and the IC50 was 4.2 µM. The IC50 in data set [3] was more than 25 µM.

The record behind these values is patent US9387213B2, “Small molecules inhibiting oncoprotein Myc” (Health Research, Inc., priority 2012, dated 2016).
